Laboratory results: ChEMBL document CHEMBL4316591, “Optimization of Pan-Pim Kinase Activity and Oral Bioavailability Leading to Diaminopyrazole (GDC-0339) for the Treatment of Multiple Myeloma” (J Med Chem, 2019)
Converted amounts (≈) assume the structure as drawn.

How the values were obtained:
physchem = conditions: buffer, pH 6.5
in vivo [1] = conditions: Sprague-Dawley, rat, iv, 1 mg/kg
in vivo [2] = conditions: Sprague-Dawley, rat, po, 5 mg/kg
[3] = Volume of distribution at steady state in Sprague-Dawley rat at 1 mg/kg, iv by LC-MS/MS analysis; format: ADME, organism-based; conditions: in vivo, read-out: Vdss
[4] = Oral bioavailability in cynomolgus monkey at 100 mg/kg by LC-MS/MS analysis; format: ADME, organism-based, Macaca fascicularis; conditions: in vivo
[5] = Oral bioavailability in mouse at 5 mg/kg by LC-MS/MS analysis by LC-MS/MS analysis; format: ADME, organism-based; conditions: in vivo
[6] = Volume of distribution at steady state in mouse at 1 mg/kg, iv by LC-MS/MS analysis; format: ADME, organism-based; conditions: in vivo, read-out: Vdss
[7] = Half life in cynomolgus monkey at 0.5 mg/kg by LC-MS/MS analysis; conditions: in vivo
[8] = Half life in mouse at 1 mg/kg, iv by LC-MS/MS analysis; format: ADME, organism-based; conditions: in vivo
[9] = Oral bioavailability in mouse at 100 mg/kg by LC-MS/MS analysis; format: ADME, organism-based; conditions: in vivo
[10] = Oral bioavailability in Sprague-Dawley rat at 100 mg/kg by LC-MS/MS analysis; format: ADME, organism-based; conditions: in vivo
[11] = Total clearance in mouse at 1 mg/kg, iv by LC-MS/MS analysis; format: ADME, organism-based; conditions: in vivo
[12] = Volume of distribution at steady state in cynomolgus monkey at 0.5 mg/kg by LC-MS/MS analysis; conditions: in vivo, read-out: Vdss
[13] = Total clearance in cynomolgus monkey at 0.5 mg/kg, iv by LC-MS/MS analysis; format: ADME, organism-based, Macaca fascicularis; conditions: in vivo
[14] = Oral bioavailability in cynomolgus monkey at 1 mg/kg by LC-MS/MS analysis; format: ADME, organism-based, Macaca fascicularis; conditions: in vivo
[15] = Half life in Sprague-Dawley rat at 1 mg/kg, iv by LC-MS/MS analysis; format: ADME, organism-based; conditions: in vivo

solubility thermodynamic (physchem)	clearance (in vivo [1])	bioavailability (in vivo [2])	Compound	also measured
16 µM (≈ 7.37 µg/mL)	3 mL/min/kg	24%	Cn1ncc(NC(=O)c2nc(-c3c(F)cccc3F)sc2N)c1[C@@]12CC[C@@H](N)[C@@H](CC1)O2	
88 µM (≈ 40.9 µg/mL)			Cn1ncc(NC(=O)c2nc(-c3c(F)cccc3F)sc2N)c1C1CCC(N)C(F)CC1 (stereo not drawn)	
67 µM (≈ 31.2 µg/mL)	8 mL/min/kg	33%	Cn1ncc(NC(=O)c2nc(-c3c(F)cccc3F)sc2N)c1N1CC[C@@H](N)[C@H](F)CC1	Vd [3]: 0.9 L/kg; bioavailability [4]: 60%; bioavailability [5]: 11%; Vd [6]: 6.8 L/kg; half-life [7]: 1.8 h; half-life [8]: 0.9 h; bioavailability [9]: 34%; bioavailability [10]: 28%; clearance [11]: 135 mL/min/kg; Vd [12]: 5 L/kg; clearance [13]: 34 mL/min/kg; bioavailability [14]: 35%; half-life [15]: 1.8 h
62 µM (≈ 29.6 µg/mL)	2 mL/min/kg	3%	CO[C@H]1C[C@H](N)CCN(c2c(NC(=O)c3nc(-c4c(F)cccc4F)sc3N)cnn2C)C1	
1 µM (≈ 0.53 µg/mL)			Cn1ncc(NC(=O)c2nc(-c3c(F)cccc3F)sc2N)c1N1CCC[C@H](NCC(F)(F)F)CC1	
< 1 µM	7 mL/min/kg	38%	Cn1ncc(NC(=O)c2nc(-c3c(F)cccc3F)sc2N)c1N1CCCC(O)CC1 (stereo not drawn)	

Compound	solubility thermodynamic (physchem)	clearance (in vivo [1])	bioavailability (in vivo [2])	also measured
Cn1ncc(NC(=O)c2nc(-c3c(F)cccc3F)sc2N)c1N1CCC[C@H](NCC(F)F)CC1	1 µM (≈ 0.512 µg/mL)			
